Measured values published in patent publication US20250099779A1, “DEVICE AND METHOD FOR REGULATING RELEASE OF ADENOSINE IN ORGANISM, AND USE” (WENZHOU VENTURA TECHNOLOGY CO., LTD., priority 2022, published 2025).
“Also recorded” adds a separate entry of the source.

How the values were obtained:
Type in all cases: in vivo
CD73-KO mice = experiment: Nocturnal movement activity after 40 Hz light flicker
Procedure: Thus, we speculated that the 40 Hz light flicker stimulus can regulate sleep rhythm. We firstly exposed the wild-type C57BL/6J mice to light flickers at different frequencies in the last 30 minutes of the daytime phase (19:30-20:00), and then monitored the nocturnal movement activity of the mice, thereby reflecting the sleep-wake states of the mice indirectly. […] We then intraperitoneally injected CD73-KO mice with the […] transporter inhibitor Dipyridamole (Dipyr) at 15 mg/kg. […] Meanwhile, we also intraperitoneally injected CD73-KO mice with the adenosine Al receptor activity antagonist 8-Cyclopentyl-1,3-dipropyl-1H-purine-2,6(3H,7H)-dione (DPCPX) at 6 mg/kg.

C57BL/6J mice = experiment: EEG/EMG sleep recording after adenosine microinjection into V1 visual cortex
Procedure: Adenosine was injected locally in the V1 cortex of mice to illustrate that the increase in the concentration of adenosine in the visual cortex could improve the sleep amount of mice. The administration cannulas were implanted in bilateral V1 brain regions of C57BL/6J mice, and the mice were placed in the sleep recording cage after about 10 days of surgical recovery. After 3 days of adaptation, the artificial cerebrospinal fluid (ACSF), adenosine of 1.5 nmol/side or adenosine 4.5 nmol/side was microinjected into the V1 visual cortex at the beginning of the dark phase on days 1, 4 and 7 (the administration order was random, and the injection volume was 2 μl/side), respectively; and the EEG/EMG of mice was recorded.

[1] = system: adenosine in the visual cortex (V1); experiment: UPLC detection of total adenosine concentration in the visual cortex of mice; conditions: mice visual cortex V1, Dipyridamole 6 mg/kg intraperitoneal, 30 min before illumination
Procedure: The total concentration of adenosine in the visual cortex of mice was detected by ultra-high performance liquid chromatography (which is reported including 95% extracellular adenosine and 5% intracellular adenosine in literature). Dipyridamole (Dipyr) (a 6 mg/kg adenosine transporter inhibitor) dissolved in 0.5% methylcellulose was intraperitoneally injected 30 minutes before illumination, while the control group was given 0.5% methylcellulose. 30 minutes after the injection, the blank control group and the Dipyridamole group were illuminated for 30 minutes by the light flicker stimulus with the illuminance of 3000 lux, the duty ratio of 50% and the strobe of 40 Hz (referred to as “40 Hz light flicker stimulus” hereinafter). After illumination, the materials were sampled, weighed and rapidly frozen in liquid nitrogen immediately. After the sample processing, the peak value at about 2.0 was detected on machine with reference to the parameters of the standard substance, and the area under the curve at this moment was taken as the concentration of adenosine in the sample. Finally, the concentration of adenosine was obtained after checking the sample quality and calibrating.

[2] = 4.5 nmol/side microinjected into V1, mice

## CCCn1c(=O)c2[nH]c(C3CCCC3)nc2n(CCC)c1=O [DPCPX, 8-Cyclopentyl-1,3-dipropyl-1H-purine-2,6(3H,7H)-dione]
CD73-KO mice; 6 mg/kg intraperitoneal, 6 mg/kg
  movement inhibition effect caused by the 40 Hz light flicker: block the movement inhibition effect

## Nc1ncnc2c1ncn2[C@@H]1O[C@H](CO)[C@@H](O)[C@H]1O [adenosine]
C57BL/6J mice; 1.5 nmol/side microinjected into V1, mice
  sleep amount compared to the control group (ACSF): tendency to promote sleep but no significant difference
C57BL/6J mice; [2]
  amount of the non-rapid eye movement sleep in the dark phase: 3 h
  non-rapid eye movement sleep amount compared to the control group (ACSF): significantly increases
C57BL/6J mice; adenosine injection into the visual cortex, 1.5 and 4.5 nmol/side
  total sleep amount of mice: concentration-dependent increase

## OCCN(CCO)c1nc(N2CCCCC2)c2nc(N(CCO)CCO)nc(N3CCCCC3)c2n1 [Dipyridamole]
[1]
  total concentration of intracellular and extracellular adenosine: effectively inhibit
CD73-KO mice; 15 mg/kg intraperitoneal, 15 mg/kg
  movement inhibition effect induced by the 40 Hz light flicker: blocks the movement inhibition effect; also recorded: completely disappeared
